# From patent publication US8618046B2, “Treatment of atherosclerosis with cholesterol ester transport protein mimotopes” (Affiris AG, priority 2007, dated 2013)
# Entries after “also recorded” stand apart in the source; their conditions may differ.
# Tested on: monoclonal antibody “Frida”
# Assay: In vitro inhibition (competition) ELISA with mAb Frida on coated original CETP epitope
# Format: binding, mouse
# Conditions: for inhibition ELISA signal, high / inhibition ELISA signal, low / inhibition ELISA signal, 2 μg peptide / inhibition ELISA signal, 20 μg peptide: 2.5 ng mAb Frida; for inhibition ELISA signal, high / inhibition ELISA signal, low / inhibition ELISA signal, first value column / inhibition ELISA signal, second value column / inhibition ELISA signal, 2 μg peptide / inhibition ELISA signal, 20 μg peptide: detection αIgG1; for inhibition ELISA signal, high: high peptide amount; for inhibition ELISA signal, low: low peptide amount; for inhibition in in vitro competition ELISA, mAb “Frida” (in words): monoclonal antibodies “Frida” and, where stated, “James”; for inhibition ELISA signal, first value column / inhibition ELISA signal, second value column: FIG. 18b, column without head; for inhibition ELISA signal, 2 μg peptide / inhibition ELISA signal, 20 μg peptide: coat 1 μM peptide
# Procedure: Different amounts of peptides (2 and 20 μg, as indicated in the respective figures) derived from Phage Display were incubated with the monoclonal antibody that was used for the screening procedure. Peptides diminishing subsequent binding of the antibody to the original CETP epitope (C-terminal 16 amino acids of CETP protein) coated on ELISA plates were considered as inhibiting. (Results see i.a. FIGS. 19a to 19c)
# [1] = FIG. 18a, coat 1 μM 4073 peptide
substance,measurement,setting,value
C-AAFAAHLLADFLQAAA (N-terminal Cys; CETP mimotope) [p4436],"inhibition ELISA signal, high","FIG. 18c, coat 1 μM 4073",1.691
same,"inhibition ELISA signal, low","FIG. 18c, coat 1 μM 4073",1.632
C-FPEHLLVDFLQSL (N-terminal Cys) [reference compound],"inhibition in in vitro competition ELISA, mAb “Frida” (in words)",,not inhibiting in vitro
C-DFGFPAHVFIDWLQSLS (N-terminal cysteine; CETP mimotope) [p4480],"inhibition ELISA signal, high",[1],0.103
same,"inhibition ELISA signal, low",[1],0.521
C-PEHLLVDFLQSLS (N-terminal Cys) [reference compound],"inhibition in in vitro competition ELISA, mAb “Frida” (in words)",,evtl. slightly inhibiting in vitro
C-DFGFPAHVTIDWLQSLN (N-terminal cysteine; CETP mimotope) [p4989],"inhibition ELISA signal, first value column",coat 1 μM 4073 peptide,0.932
same,"inhibition ELISA signal, second value column",coat 1 μM 4073 peptide,0.274
C-GFKPAHVFIDWLQSLS (N-terminal cysteine; CETP mimotope) [p4479],"inhibition ELISA signal, high",[1],1.591
same,"inhibition ELISA signal, low",[1],2.165
C-FKPAHVFIDWLQSLS (N-terminal cysteine; CETP mimotope) [p4478],"inhibition ELISA signal, high",[1],1.206
same,"inhibition ELISA signal, low",[1],2.231
C-FGFPAHVFIDWLQSLN (N-terminal cysteine; CETP mimotope) [p4474],"inhibition ELISA signal, high",[1],0.179
same,"inhibition ELISA signal, low",[1],1.452
C-FGFPAHVYIDWLQSLS [p4362],"inhibition ELISA signal, 2 μg peptide",FIG. 10a,0.75
same,"inhibition ELISA signal, 20 μg peptide",FIG. 10a,0.15
C-FGFPAHVFIDWLQ (N-terminal cysteine; CETP mimotope) [p4631],"inhibition ELISA signal, first value column",coat 1 μM 4073 peptide,2.111
same,"inhibition ELISA signal, second value column",coat 1 μM 4073 peptide,2.147
C-FGFPAHVFIDWLQSLS [p4361],"inhibition ELISA signal, 2 μg peptide",FIG. 10a,0.82
same,"inhibition ELISA signal, 20 μg peptide",FIG. 10a,0.16
C-FGFPAHVSIDWLQSLS (N-terminal cysteine; CETP mimotope) [Fr12/3/84 ext2],"inhibition in in vitro competition ELISA, mAb “Frida” (in words)",,significant inhibition; also recorded: Strongly inhibiting
C-FGFPEHVFIDWLQSLS (N-terminal cysteine; CETP mimotope) [p4477],"inhibition ELISA signal, high",[1],0.116
same,"inhibition ELISA signal, low",[1],0.808
FGFPAHVFIDWLQSLN-C [p5068],"inhibition ELISA signal, first value column",coat 1 μM 4073 peptide,0.757
same,"inhibition ELISA signal, second value column",coat 1 μM 4073 peptide,0.271
C-DFGFPAHVLIDWLQSLN (N-terminal cysteine; CETP mimotope) [p4990],"inhibition ELISA signal, first value column",coat 1 μM 4073 peptide,0.263
same,"inhibition ELISA signal, second value column",coat 1 μM 4073 peptide,0.073
C-AAFPAHAAADFLQALA (N-terminal Cys; CETP mimotope) [p4435],"inhibition ELISA signal, high","FIG. 18c, coat 1 μM 4073",1.969
same,"inhibition ELISA signal, low","FIG. 18c, coat 1 μM 4073",1.281
C-FGFPAHFSIDWLQSLS (N-terminal cysteine; CETP mimotope) [p4475],"inhibition ELISA signal, high",[1],1.429
same,"inhibition ELISA signal, low",[1],2.211
C-FGFPEHLLVDFLQSL (N-terminal Cys) [reference compound],"inhibition in in vitro competition ELISA, mAb “Frida” (in words)",,inhibiting in vitro
C-FPEHLLVDFLQSLS (N-terminal Cys) [reference compound],"inhibition in in vitro competition ELISA, mAb “Frida” (in words)",,inhibiting in vitro
C-FGFPSHIIIDWLQSLS (N-terminal Cys; CETP mimotope) [p4432],"inhibition ELISA signal, high","FIG. 18c, coat 1 μM 4073",0.096
same,"inhibition ELISA signal, low","FIG. 18c, coat 1 μM 4073",0.635
"FGFPEHLLVDFLQSLS-C (C-terminal Cys; CETP mimotope) [p1208, positive control peptide, reference compound]","inhibition ELISA signal, high",[1],0.093
same,"inhibition ELISA signal, low",[1],0.712
same,"inhibition ELISA signal, first value column",coat 1 μM 4073 peptide,0.264
same,"inhibition ELISA signal, second value column",coat 1 μM 4073 peptide,0.079
same,"inhibition ELISA signal, high","FIG. 18c, coat 1 μM 4073",0.101
same,"inhibition ELISA signal, low","FIG. 18c, coat 1 μM 4073",0.942
C-AAAPAHLLVDAAQAAA (N-terminal Cys; CETP mimotope) [p4437],"inhibition ELISA signal, high","FIG. 18c, coat 1 μM 4073",1.674
same,"inhibition ELISA signal, low","FIG. 18c, coat 1 μM 4073",1.84
C-DFGFPSHLIIDWLQSLS (N-terminal cysteine; CETP mimotope) [p4642],"inhibition ELISA signal, first value column",coat 1 μM 4073 peptide,0.171
same,"inhibition ELISA signal, second value column",coat 1 μM 4073 peptide,0.082
C-FGFPSHLIIDWLQSLS (N-terminal Cys; CETP mimotope) [p4325],"inhibition ELISA signal, 2 μg peptide",FIG. 10b,0.42
same,"inhibition ELISA signal, 20 μg peptide",FIG. 10b,0.1
C-PAHVYIDWLQSLS (N-terminal cysteine; CETP mimotope) [p4629],"inhibition ELISA signal, first value column",coat 1 μM 4073 peptide,0.313
same,"inhibition ELISA signal, second value column",coat 1 μM 4073 peptide,0.118
C-AAFPAHLLADAAQALA (N-terminal Cys; CETP mimotope) [p4434],"inhibition ELISA signal, high","FIG. 18c, coat 1 μM 4073",1.461
same,"inhibition ELISA signal, low","FIG. 18c, coat 1 μM 4073",1.74
C-PSHLIIDWLQ (N-terminal cysteine; CETP mimotope) [p4819],"inhibition ELISA signal, first value column",coat 1 μM 4073 peptide,2.226
same,"inhibition ELISA signal, second value column",coat 1 μM 4073 peptide,2.158
FGFPAHVYIDWLQSLS-C (C-terminal cysteine; CETP mimotope) [p5067],"inhibition ELISA signal, first value column",coat 1 μM 4073 peptide,0.563
same,"inhibition ELISA signal, second value column",coat 1 μM 4073 peptide,0.217
C-FGFPEHLLVDFLQS [reference compound],"inhibition in in vitro competition ELISA, mAb “Frida” (in words)",,not inhibiting in vitro
C-PAHVFIDWLQ (N-terminal cysteine; CETP mimotope) [p4820],"inhibition ELISA signal, first value column",coat 1 μM 4073 peptide,2.310
same,"inhibition ELISA signal, second value column",coat 1 μM 4073 peptide,2.374
"C-FGFPEHLLVDFLQSLS [p4073, reference compound]","inhibition ELISA signal, 2 μg peptide",FIG. 10a,0.44
same,"inhibition ELISA signal, 20 μg peptide",FIG. 10a,0.1
same,"inhibition ELISA signal, 2 μg peptide",FIG. 10b,0.64
same,"inhibition ELISA signal, 20 μg peptide",FIG. 10b,0.15
same,"inhibition ELISA signal, high",[1],0.094
same,"inhibition ELISA signal, low",[1],0.537
same,"inhibition ELISA signal, high","FIG. 18c, coat 1 μM 4073",0.088
same,"inhibition ELISA signal, low","FIG. 18c, coat 1 μM 4073",0.554
same,"inhibition in in vitro competition ELISA, mAb “Frida” (in words)",,inhibiting in vitro
C-FGFPQHLFTDWLQSLS (N-terminal cysteine; CETP mimotope) [p4481],"inhibition ELISA signal, high",[1],0.156
same,"inhibition ELISA signal, low",[1],0.551
C-GFPEHLLVDFLQSLS (N-terminal Cys) [reference compound],"inhibition in in vitro competition ELISA, mAb “Frida” (in words)",,inhibiting in vitro
C-DFGFPAHVFIDWLQSLN (N-terminal cysteine; CETP mimotope) [p4818],"inhibition ELISA signal, first value column",coat 1 μM 4073 peptide,0.332
same,"inhibition ELISA signal, second value column",coat 1 μM 4073 peptide,0.091
C-FGFPAHVYIDWLQ (N-terminal cysteine; CETP mimotope) [p4630],"inhibition ELISA signal, first value column",coat 1 μM 4073 peptide,2.131
same,"inhibition ELISA signal, second value column",coat 1 μM 4073 peptide,2.115
C-FGFPAHVSFDWLQSLS (N-terminal cysteine; CETP mimotope) [p4476],"inhibition ELISA signal, high",[1],1.417
same,"inhibition ELISA signal, low",[1],2.000
C-FGFPSHLIIEWLQSLS (N-terminal Cys; CETP mimotope) [p4433],"inhibition ELISA signal, high","FIG. 18c, coat 1 μM 4073",0.672
same,"inhibition ELISA signal, low","FIG. 18c, coat 1 μM 4073",1.114
